Data on two compounds can be found in patent publication US12215081B2, “Pharmaceutical intermediate” (ZAKLADY FARM[…] S.A., priority 2019, dated 2025).

A short description of the series: Stability of 4-(4-fluorobenzylamino)-1-methylpiperidine (oil) and its trihydrate stored in a sealed container, purity and impurities over time. The series is classed as physicochemical. The following applies: for decrease in purity: crude oil, sealed container. Here is the method:
The stability of the crude 4-(4-fluorobenzylamino)-1-methylpiperidine oil obtained by the process described in Example 1 was also assessed.
The crude 4-(4-fluorobenzylamino)-1-methylpiperidine oil decreased in purity by 0.5% after 1 month and 0.7% after 2.5 months.

Where [1] appears, read: Batch 3, sealed container, 0 months.
[2] abbreviates: Batch 3, sealed container, 1 month.
Where [3] appears, read: Batch 4, sealed container, 0 months.
[4] abbreviates: Batch 4, sealed container, 2.5 months.

As to `CN1CCC(NCc2ccc(F)cc2)CC1` [4-(4-fluorobenzylamino)-1-methylpiperidine], the Amine purity entry reads like this: under setting [1], “Amine - 98.17% pure”; under setting [2], “Amine - 97.66% pure”; under setting [3], “Amine - 97.82% pure”; under setting [4], “Amine - 97.09% pure”. Besides, the “impurity I (% impurity)” value is “I/(0.21) %” under setting [1], “I/(0.26) %” under setting [2], “I/(0.23) %” under setting [3] and “I/(0.18) %” under setting [4]. The “impurity II (% impurity)” value under setting [1] was “II/(0.12) %”, the “impurity II (% impurity)” value under setting [2] is listed as “II/(0.21) %”, the “impurity II (% impurity)” value under setting [3] was “II/(0.12) %” and the “impurity II (% impurity)” value under setting [4] was “II/(0.14) %”. Besides, the “impurity III (% impurity)” value is, setting by setting: under setting [1], “III/(0.27) %”; under setting [2], “III/(0.59) %”; under setting [3], “III/(0.68) %”; under setting [4], “III/(1.15) %”. Also, the decrease in purity is, setting by setting: (after 1 month) 0.5%; (after 2.5 months) 0.7%.

For `CN1CCC(NCc2ccc(F)cc2)CC1` [4-(4-fluorobenzylamino)-1-methylpiperidine trihydrate], where the note is “stored under the same conditions as the amine oil (sealed container)”, the “stability on storage (decomposition)” value was “stable, and no decomposition was observed”.
